Drawing on PubChem BioAssay (NCI), this text covers GI50 and TGI for seven compounds.

Common to all, as to test: growth of human tumour cells (NCI), 48 h
In experiment [1] the test system is MALME-3M melanoma.
The subject of experiment [2] is OVCAR-4 ovarian.
The subject of experiment [3] is OVCAR-8 ovarian.
In experiment [4] the test system is IGROV1 ovarian.
Experiment [5] deals with HOP-62 NSCLC.
Experiment [6] has as its system COLO 205 colon.
For experiment [7], the system named is DU-145 prostate.
Experiment [8] relates to UACC-62 melanoma.
For experiment [9], the system named is UACC-257 melanoma.
For experiment [10], the system named is ACHN renal.

Molecules are shown by their SMILES. “And” between values parts separate entries of the source, which are not always exact repeats. Equal entries are not always repeated.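 Five compound concentrations were applied to cells in 96-well plates for 48 hours; endpoints were derived by simple linear interpolation of the resulting dose-response curve. At the GI50, growth is halved. TGI denotes the concentration required for complete inhibition of growth.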 Where only a bound is given, the exact number is not on record here.

For the compound `COc1cc(Nc2ccnc(NCCCNc3ccnc4cc(Cl)ccc34)n2)cc(OC)c1`, the GI50 was 2.02 µM in [1]; 1.58 µM in experiment [2]; 2.07 µM in experiment [3]; 2.23 µM in experiment [4]; 1.75 µM in experiment [5]; 1.38 µM in experiment [6]. For the same compound, the GI50 was 3.62 µM in experiment [7], 1.67 µM in experiment [8], 1.84 µM in experiment [9] and 1.8 µM in [10]. Further, the TGI in experiment [1] came out at 3.86 µM; in experiment [2], 5.1 µM; in experiment [3] it was 5.65 µM; in experiment [4], 5.73 µM; in [5], 5.12 µM; in experiment [6], 2.9 µM. For the same compound, the TGI in [7] was 12.2 µM; in experiment [8], 3.13 µM; in [9] it was 3.44 µM; in experiment [10], 3.53 µM.
In the case of `COc1cc(/C=C/C(=O)c2ccc(NC(=O)CN3CCN(c4cc5c(cc4F)c(=O)c(C(=O)O)cn5C4CC4)CC3)cc2)cc(OC)c1OC`, the GI50 is 2.32 µM in [1]; 1.38 µM in experiment [2]; 0.401 µM in experiment [3]; 0.671 µM in [4]; 0.353 µM in experiment [5]; 1.34 µM in experiment [6]. Also, the GI50 was 1.07 µM in [7], 0.887 µM in experiment [8], 1.42 µM in [9] and 0.692 µM in experiment [10]. For the same compound, the TGI stood at 14.5 µM in [1]; 22.3 µM in experiment [2]; 26.9 µM in experiment [3]; 3.37 µM in experiment [4]; 3.93 µM in experiment [5]; 8.11 µM in experiment [6]. Further, the TGI in [7] is above 27.1 µM; in [8], 3.39 µM; in experiment [9] it was 65.4 µM; in experiment [10], above 26.6 µM.
Consider `COC(=O)C1=C(C)NC(C)=C(C(=O)OC)C1/C=C(Cl)/C=C/c1ccccc1`, for which the GI50 in experiment [1] is 19.8 µM; in experiment [2] it was 30.4 µM; in experiment [3], 36 µM; in experiment [4], 18.2 µM; in [5], 20.1 µM; in experiment [6], 30.9 µM. The GI50 in [7] is 18.4 µM; in [8] it was 16.1 µM; in [9], 16.8 µM; in experiment [10] it was 24.6 µM. Besides, the TGI in [1] is 46 µM; in [2], above 100 µM; in [3], above 100 µM; in [4], 43.8 µM; in [5], 38.5 µM; in experiment [6], 75.6 µM. For the same compound, the TGI was 36.7 µM in [7], 30.8 µM in experiment [8], 41 µM in experiment [9] and 76 µM in experiment [10].
Take `NC(=O)c1ccc2nc(-c3ccc(Oc4ccc(Cl)cc4)cc3)[nH]c2c1`: the GI50 in experiment [1] was 32.4 µM and 18.2 µM; in experiment [2], 41.7 µM and 11.4 µM; in [3], 58 µM and 12.9 µM; in experiment [4], 30.9 µM and 15.9 µM; in experiment [5], 48.4 µM and 13.7 µM; in [6], 22.3 µM and 20.8 µM. Besides, the GI50 was 35 µM and 13 µM in [7]; 75 µM and 16.4 µM in [8]; 66.7 µM and 18.4 µM in experiment [9]; 13.9 µM and 14.4 µM in experiment [10]. Further, the TGI in [1] was 75 µM and 33.6 µM; in [2], 75 µM and 31.1 µM; in experiment [3], 75 µM and 34.4 µM; in experiment [4], 75 µM and 36.2 µM; in experiment [5], 75 µM and 36.1 µM; in experiment [6], 75 µM and 38.9 µM. The TGI in experiment [7] was 75 µM and 29.8 µM; in experiment [8] it was 75 µM and 30.7 µM; in experiment [9], 75 µM and 33.5 µM; in [10], 75 µM and 30.2 µM.
With `Nc1nc(-c2ccc(F)cc2)c(-c2ccc3ncccc3n2)s1`, the GI50 is 19.6 µM in experiment [1]; 16.6 µM in [2]; 15.6 µM in [3]; 5.44 µM in [4]; 24.9 µM in [5]; above 25 µM in experiment [6]. Moreover, the GI50 in experiment [7] is 14.1 µM; in [8], above 23.2 µM; in [9] it was above 25 µM; in [10], 8.33 µM. Further, the TGI in experiment [1] was above 25 µM; in [2], above 25 µM; in experiment [3] it was above 25 µM; in [4] it was above 20.9 µM; in experiment [5], above 25 µM; in experiment [6] it was above 25 µM. The TGI in [7], in experiment [8], in experiment [9] and in [10] was above 25 µM each time.
In the case of `COc1cc(C2=C(C#Cc3ccccc3)COC2=O)cc(OC)c1OC`, the GI50 is 3.72 µM in experiment [1]; 34.2 µM in experiment [2]; 5.37 µM in experiment [3]; 0.706 µM in [5]; 4.89 µM in experiment [6]; 0.293 µM in experiment [7]. In addition, the values for the GI50 in experiment [8], in [9] and in [10] were 0.288 µM, 6.17 µM and 1.8 µM, respectively. The TGI in [1] is 33.1 µM; in experiment [2], above 100 µM; in experiment [3] it was above 45.4 µM; in experiment [4] it was above 100 µM; in experiment [5], 2.61 µM; in experiment [6], above 94.6 µM. The TGI was 18 µM in experiment [7], 4.12 µM in [8], above 70.4 µM in experiment [9] and 8.16 µM in experiment [10].
Consider `Cc1c(COc2cc(OCc3cccc(C#N)c3)c(CN3C[C@H](O)C[C@@H]3C(=O)O)cc2Cl)cccc1-c1ccc2c(c1)OCCO2`, for which the GI50 in experiment [1] is 14.7 µM; in experiment [2], 24.7 µM; in experiment [3] it was 27.1 µM; in experiment [4] it was 16.3 µM; in [5], 19.8 µM; in experiment [6], 20.7 µM. Further, the GI50 in [7] is 24.4 µM; in experiment [8], 17 µM; in experiment [9] it was 20.6 µM; in [10], 17.2 µM. In addition, the TGI in [1] was 28.9 µM; in experiment [2], 61.4 µM; in experiment [3], above 100 µM; in experiment [4] it was 32.5 µM; in experiment [5] it was 38.6 µM; in experiment [6] it was 39.7 µM. For the same compound, the TGI stood at 62.1 µM in experiment [7], 32.3 µM in experiment [8], 41.8 µM in [9] and 31 µM in experiment [10].
